The subject of the test is prostate. As to the kind of experiment: Intraprostatic infusion of S05A Peptides in rats: histological changes of cell death and prostate volume. In kind it is in vivo, Male Sprague-Dawley rats. Also noted: key to Histological Changes of Cell Death at 24 Hours / Histological Changes of Cell Death at 72 Hours: −: Absent; +: Present, Minimal; ++: Present, Moderate; +++: Present, Moderate and Diffuse; ++++: Present, Diffuse and Extensive. Particulars: for histological findings in prostate of treated rats: rat prostate after intraprostatic infusion, 1.0 mg/kg; for Calculated Mean Volume 24 Hours / Calculated Mean Volume 72 Hours / Calculated Mean Volume 7 Days: rat prostate volume from mean cross-sectional diameters, V=4/3π(D/2)^3; for Calculated Mean Volume 24 Hours / Calculated Mean Volume 72 Hours / Calculated Mean Volume 7 Days / Calculated Mean Volume Overall: 1.0 mg/kg intraprostatic; for Calculated Mean Volume Overall: rat prostate volume, overall across 24 hours, 72 hours and 7 days; for Histological Changes of Cell Death at 24 Hours / Histological Changes of Cell Death at 72 Hours: rat prostate, intraprostatic infusion 300 μl of 1 mg/mL in PBS pH 7.4 (1.0 mg/kg), H & E sections. How it is done: The purpose of this example was to determine the effect of S05A Peptides on tissue at sites of injection.
Male Sprague-Dawley rats (300 gram weight range) were anesthetized with ether and given one of the above S05A Peptides by intraprostatic infusion, a control injection of normal saline or no injection after open surgical visualization of the prostate. The injections consisted of 300 μl of the S05A Peptide 1 mg/mL in PBS pH 7.4. (1.0 mg/kg) (n=36). Rats were painlessly sacrificed after 24 hours (n=12), 72 hours (n=12) and 7 days (n=12). Prostate glands were dissected, fixed in 10% buffered formalin for 24 hours, embedded in paraffin, sectioned, and stained with H & E. For each animal the entire prostate gland was embedded and sectioned. All stained sections were examined histologically and measured. For each prostate at least […] histological sections were examined, and for each histological section two cross-sectional diameters (D) at 90° from each other were measured (total of ≧8 measurements per prostate). The mean of the cross-sectional diameters (D) for each group was used to estimate volume according to V=4/3π(D/2)^3 and the mean volume calculated for each group. Histological changes were assessed on the following scale:
+++ Present, Moderate and Diffuse
++++ Present, Diffuse and Extensive

Where no end group is shown, it is not given here.

In the case of IDQQVLSRI [S05A-2], the “histological findings in prostate of treated rats” value is “extensive cell death, necrosis, loss of glandular epithelium and atrophy”; the “Calculated Mean Volume 24 Hours” value is 180 mm^3; the “Calculated Mean Volume 72 Hours” value is given as 249 mm^3; the “Calculated Mean Volume 7 Days” value is recorded as 165 mm^3. For the same substance, the “Calculated Mean Volume Overall” value is recorded as 198 mm^3, the “Histological Changes of Cell Death at 24 Hours” value is recorded as “++++” and the “Histological Changes of Cell Death at 72 Hours” value is given as “++++”.

As for IDQQVLSRIKLEI [S05A-7], the “histological findings in prostate of treated rats” value was “extensive cell death, necrosis, loss of glandular epithelium and atrophy”; the “Calculated Mean Volume 24 Hours” value is recorded as 180 mm^3; the “Calculated Mean Volume 72 Hours” value is given as 165 mm^3; the “Calculated Mean Volume 7 Days” value is reported as 357 mm^3. The “Calculated Mean Volume Overall” value is reported as 234 mm^3, the “Histological Changes of Cell Death at 24 Hours” value is reported as “++++” and the “Histological Changes of Cell Death at 72 Hours” value was “++++”.

KLEIKRCL [S05A-3]: the “Calculated Mean Volume 24 Hours” value was 249 mm^3, the “Calculated Mean Volume 72 Hours” value is given as 435 mm^3, the “Calculated Mean Volume 7 Days” value is reported as 463 mm^3 and the “Calculated Mean Volume Overall” value is listed as 382 mm^3. Besides, the “Histological Changes of Cell Death at 24 Hours” value is “+” and the “Histological Changes of Cell Death at 72 Hours” value is listed as “+”.

For RIKLEIK [S05A-5], the “Calculated Mean Volume 24 Hours” value is 249 mm^3, the “Calculated Mean Volume 72 Hours” value was 408 mm^3, the “Calculated Mean Volume 7 Days” value is listed as 392 mm^3 and the “Calculated Mean Volume Overall” value is 350 mm^3. Besides, the “Histological Changes of Cell Death at 24 Hours” value is recorded as “+” and the “Histological Changes of Cell Death at 72 Hours” value is on record as “+”.

Take VLSRIK [S05A-4]: the “Calculated Mean Volume 24 Hours” value is given as 357 mm^3, the “Calculated Mean Volume 72 Hours” value was 408 mm^3, the “Calculated Mean Volume 7 Days” value was 333 mm^3 and the “Calculated Mean Volume Overall” value is given as 366 mm^3. Besides, the “Histological Changes of Cell Death at 24 Hours” value is given as “+” and the “Histological Changes of Cell Death at 72 Hours” value is “+”.

VLSRIKLEIKRCL [S05A-6]: the “Calculated Mean Volume 24 Hours” value was 310 mm^3, the “Calculated Mean Volume 72 Hours” value is recorded as 493 mm^3, the “Calculated Mean Volume 7 Days” value is on record as 408 mm^3 and the “Calculated Mean Volume Overall” value is recorded as 404 mm^3. Moreover, the “Histological Changes of Cell Death at 24 Hours” value was “+” and the “Histological Changes of Cell Death at 72 Hours” value was “+”.

The record behind these values is patent US8716247B2, “Peptides effective in the treatment of tumors and other conditions requiring the removal or destruction of cells” (Nymox Corporation, priority 2006, dated 2014).
